Reference: patent publication US11415513B2, “Method for determining the degree of sensitivity of a strain of fungus to an antifungal agent” (UNIVERSITE GRENOBLE ALPES, priority 2015, dated 2022)
Converted amounts (≈) assume the structure as drawn. Read-outs that look alike come from different tables or passages of the source.

How the values were obtained:
[1] = test system: strain SC5314 of C. albicans; assay: Etest method (MIC); type: cell-based, Candida albicans; conditions: RPMI medium plates, 24 h at 35° C.; for MIC: Candida albicans, SC5314
Method: (§1) The Etest® method is a commercial test for determining the sensitivity of a strain, most frequently used routinely in clinical mycology laboratories.
(§2) The Etest® tests were performed according to the manufacturer's instructions. After distributing a standardised Mac Farland 0.5 inoculum (equivalent of […]) over plates of RPMI medium, said plates were incubated for 24 h at 35° C., with the exception of C. glabrata in which case the incubation was extended to 48 h so as to be able to determine the minimum inhibitory concentration (MIC).
(§3) The results of the MICs obtained were interpreted in accordance with the tables of the CLSI (Clinical and Laboratory Standards Institute) and/or of EUCAST (European Committee on Antimicrobial Susceptibility Testing) (Arendrup M C, Cuenca-Estrella M, Lass-Flörl C, Hope W W (2014) Breakpoints for antifungal agents: an update from EUCAST focussing on echinocandins against Candida spp and triazoles against Aspergillus spp. Drug Resist Updat 16(6):81-95. doi:10.1016/j.drup.2014.01.001) (cf. Table 2 taken from Maubon D, Garnaud C, Calandra T, et al. (2014) Resistance of Candida spp. to antifungal drugs in the ICU: where are we now? Intensive Care Med. doi: 10.1007/s00134-014-3404-7) which list the clinical thresholds (CBPs) for the most common species of yeast of the genus Candida as a function of different antifungal agents, or according to the table of epidemiological thresholds (ECVs).

[2] = test system: strain GRE32 of C. krusei; assay: Sensitivity test by HCA microscopy (chitin level, Calcofluor White; cell count); type: cell-based, Candida krusei
Method: (§4) The strains of Candida were incubated beforehand at 30° C. overnight in a yeast extract medium—peptone dextrose (YPD) (1% bacto peptone, 0.5% yeast extract, 2% glucose, 1.5% agar).
Yeast colonies were then removed from YPD medium plates and suspended in a 0.9% NaCl saline solution, in which the cell concentration was estimated by optical microscopy using Kova counting slides.
A dilution was performed to obtain 15 ml of an inoculum at 3×10^6 CFU/ml, in a synthetic complete (SC) medium at pH 7 (2% glucose, 0.5% ammonium sulfate, 0.17% nitrogen-containing yeast base, 0.2% synthetic complete mixture, and 10% HEPES 1.5M pH 7.2) for C. albicans, C. parapsilosis, C. tropicalis and C. krusei, and in a solution of RPMI 1640 pH 7.3 (10% HEPES 1M pH 7.2) for C. glabrata, so as to reduce the formation of septa and clusters.
1 ml of inoculum was then added to 2 ml of antifungal solution prepared in an SC or RPMI medium depending on the species of fungus, so as to obtain a final concentration of yeast of 10^6 CFU/ml and the desired concentration of antifungal agent according to table 1.
After homogenisation, the cultures were placed at 30° C. at 200 rpm, with the exception of cultures of C. glabrata, which were placed at 35° C. at 200 rpm, and incubated for a period of 6.5 h or 24 h.
After incubation, 100 μl of the culture of fungi obtained above were transferred in triplicate to 96-well plates, and 2.5 μl of Calcofluor White (CFW) were added to each well so as to mark the chitin of the cell walls of the yeasts.
(§5) A step of acquiring images by automated fluorescence microscopy (ScanR screening station, Olympus), using a 40× lens and a CFW filter, made it possible to obtain 30 images per well so as to capture enough cells to provide statistically significant data. These images were analysed by software (ScanR analysis software, Olympus). Firstly, the background noise was processed so as to improve the contrast between the fluorescence of the yeasts and background noise. A pixel threshold was then defined. Segmentation of the fluorescent elements present in each of the acquired images was then performed using an algorithm predefined in the software, making it possible to determine the limit of each element on the basis of the fluorescence intensity of said element. A size parameter was then applied to select the yeasts and eliminate the aggregates and the fluorescent debris.
Each element then corresponding to a yeast, it was thus possible, on the basis of these elements predefined beforehand, to define the fluorescence intensity for each of the yeasts, this intensity being directly correlated with the chitin content of their wall.
On the basis of said defined elements, it was also possible to automatically count the yeasts,
The strain GRE32 of C. krusei was cultivated as described in paragraph I of the Examples section so as to obtain an inoculum at 3×10^6 CFU/ml in 15 ml of SC medium.
2 ml of fluconazole solution prepared in the SC medium were then added to 1 ml of this inoculum so as to obtain a final concentration of yeast of 10^6 CFU/ml and of 128 μg/ml in fluconazole. […]
The chitin level in the cell wall of the yeasts was then measured by […] analysis (HCA) microscopy, as described in paragraph II of the Examples section, in triplicate for each condition of concentration of fluconazole and without fluconazole. […]

[3] = test system: strain Tg5 of C. glabrata; assay: Etest method (MIC); type: cell-based, Candida glabrata; conditions: for MIC: Nakaseomyces glabratus, read-out: MIC (Etest method)
Method: as §1, §2, §3

[4] = test system: strain DSY296 of C. albicans; assay: Sensitivity test by HCA microscopy (chitin level, Calcofluor White); type: cell-based, Candida albicans; conditions: vs cells in the absence of antifungal agent; 6.5 h at 30° C., SC medium; concentration gradient of Table 1
Method: as §4
Yeast colonies were then removed from YPD medium plates and suspended in a 0.9% NaCl saline solution, in which the cell concentration was estimated by optical microscopy using Kova counting slides. […]
as §5, with “A pixel threshold was then defined.” left out, “A size parameter was then applied to select the yeasts and eliminate the aggregates and the fluorescent debris.” left out
Each element then corresponding to a yeast, it was thus possible, on the basis of these elements predefined beforehand, to define the fluorescence intensity for each of the yeasts, this intensity being directly correlated with the chitin content of their wall. […]

[5] = RPMI medium plates, 35° C., incubation extended to 48 h for C. glabrata

Row | SMILES | MIC [1] | phenotype by Etest MIC, interpretation by the EUCAST and CLSI tables [1] | phenotype of the strain with respect to the antifungal agent (HCA) ([2]; 6.5 h at 30° C., SC medium) | decrease in the chitin level in the wall of the cells ([2]; vs cells in the absence of antifungal agent, 6.5 h at 30° C., SC medium, concentration gradient of Table 1) | MIC [3, 5] | phenotype by Etest MIC, interpretation by the EUCAST and/or CLSI tables [3, 5] | decrease in the chitin level in the wall of the cells [4] | phenotype of the strain with respect to the antifungal agent (HCA) ([2]; 24 h at 30° C.) | decrease of the number of cells ([2]; vs cells in the absence of antifungal agent, 24 h at 30° C.) | increase in the chitin level in the wall of the cells ([2]; vs cells in the absence of antifungal agent, 24 h at 30° C., inoculum in SC medium, antifungal solution in RPMI medium, concentration gradient of Table 1) | MIC ([3]; 48 h)
1 | OC(Cn1cncn1)(Cn1cncn1)c1ccc(F)cc1F [fluconazole] | 0.125 µg/mL (≈ 0.408 µM) | sensitive | resistant (an increase in the chitin level having a value less than 10% or a decrease in the chitin level of less than 20% or an unchanged chitin level) | less than 20% | > 256 µg/mL | resistant | less than 20% | – | – | – | –
2 | C[C@@H](c1ncncc1F)[C@](O)(Cn1cncn1)c1ccc(F)cc1F [voriconazole] | 0.012 µg/mL (≈ 0.0344 µM) | sensitive | – | – | – | resistant | less than 20% | intermediate (an increase in the chitin level having a value of from 10% to a value less than 20%) | less than 0.3 log | greater than or equal to 20% | 8 µg/mL (≈ 22.9 µM)
